Consider three compounds from patent US20090111182A1, “Method for Propagation of Plant” (priority 2005, published 2009).

Structures are written as SMILES.

In assay [1] the test system is embryogenic callus of the cultivar Petite. Briefly: Somatic embryo induction in liquid medium (shaken Erlenmeyer flask), effects of proline and glutamic acid. The conditions noted are these: 0.05 g callus, 40 ml medium, 6 weeks. The assay is classed as cell-based, Spathiphyllum (cultivar Petite). Here is the method:
(§1) MS liquid medium (pH 5.8) containing 1% sucrose, 3% sorbitol, and MES 5 mM was used as basal medium. Proline and glutamic acid were added to the media at the following concentrations. […] The fresh weights the thus induced somatic embryos were measured (Table 1).

Assay [2] relates to embryogenic callus from Double Take. Briefly: Somatic embryo induction in liquid medium (flask), effects of sugar composition and addition of BA. It is filed as cell-based, Spathiphyllum (cultivar Double Take). The conditions noted are these: sucrose 0%, sorbitol 3%, fructose 1.1%, BA 0 ppm. Here is the method: as §1
Media with compositions listed in Table 2 were prepared (compositions other than those listed in Table 2 were the same as those of the “somatic embryo induction medium.”).

As to `O=C(O)[C@@H]1CCCN1` [Proline, proline], the “Amount of embryo collected” value in assay [1] (proline 3 mM, glutamic acid 0 mM) is given as 3.4 g/flask.

In the case of `O=C(CO)[C@@H](O)[C@H](O)[C@H](O)CO` [Fructose, fructose], the “Weight of somatic embryo” value in assay [2] was 3.8 (g)/flask.

Turning to `N[C@@H](CCC(=O)O)C(=O)O` [Glutamic acid, glutamic acid], the “Amount of embryo collected” value in assay [1] (proline 0 mM, glutamic acid 3 mM) stood at 3.5 g/flask.
